In US20110288082A1, “METHODS AND COMPOSITIONS FOR INHIBITION OF THE TRANSITIONAL ENDOPLASMIC RETICULUM ATPASE” (priority 2010, published 2011):
Where two headings read alike, the source gives them in different places.

Tests used:
[1] = system: p97-dependent Ub^G76V-GFP degradation in HeLa cells; assay: Ub^G76V-GFP degradation (turn-over) assay; type: cell-based, human; settings: Homo sapiens, HeLa
Procedure: Ub^G76V-GFP Degradation Assay
Two GFP images with 100 ms exposure time per well were acquired and the average GFP intensity per area of a HeLa cell was determined by using MetaXpress software. Mean GFP intensity of 300-500 cells was calculated using Excel. Normalized GFP intensity was calculated using the following formula: (Test compound−Background)/(Basal GFP intensity—Background). Where: Test compound is defined as Mean GFP intensity of Ub^G76V-GFP-expressing cells treated with the test compound. Background is defined as background GFP intensity of HeLa cells. Basal GFP intensity is defined as mean GFP intensity of Ub^G76V-GFP-expressing cells treated with DMSO. […] The percent of remaining k for each compound is calculated using the following formula: (Test compound/DMSO control)*100. Where: Test_compound is defined as k determined from wells containing test compound, DMSO control is defined as k determined from wells containing DMSO.

[2] = molecular target: p97 (Homo sapiens, UniProt P55072); assay: p97 ATPase assay (Kinase Glo Plus; biomol green for compounds that interfere with luciferase); type: biochemical
Sequence of p97 (P55072 2-806 limits assumed): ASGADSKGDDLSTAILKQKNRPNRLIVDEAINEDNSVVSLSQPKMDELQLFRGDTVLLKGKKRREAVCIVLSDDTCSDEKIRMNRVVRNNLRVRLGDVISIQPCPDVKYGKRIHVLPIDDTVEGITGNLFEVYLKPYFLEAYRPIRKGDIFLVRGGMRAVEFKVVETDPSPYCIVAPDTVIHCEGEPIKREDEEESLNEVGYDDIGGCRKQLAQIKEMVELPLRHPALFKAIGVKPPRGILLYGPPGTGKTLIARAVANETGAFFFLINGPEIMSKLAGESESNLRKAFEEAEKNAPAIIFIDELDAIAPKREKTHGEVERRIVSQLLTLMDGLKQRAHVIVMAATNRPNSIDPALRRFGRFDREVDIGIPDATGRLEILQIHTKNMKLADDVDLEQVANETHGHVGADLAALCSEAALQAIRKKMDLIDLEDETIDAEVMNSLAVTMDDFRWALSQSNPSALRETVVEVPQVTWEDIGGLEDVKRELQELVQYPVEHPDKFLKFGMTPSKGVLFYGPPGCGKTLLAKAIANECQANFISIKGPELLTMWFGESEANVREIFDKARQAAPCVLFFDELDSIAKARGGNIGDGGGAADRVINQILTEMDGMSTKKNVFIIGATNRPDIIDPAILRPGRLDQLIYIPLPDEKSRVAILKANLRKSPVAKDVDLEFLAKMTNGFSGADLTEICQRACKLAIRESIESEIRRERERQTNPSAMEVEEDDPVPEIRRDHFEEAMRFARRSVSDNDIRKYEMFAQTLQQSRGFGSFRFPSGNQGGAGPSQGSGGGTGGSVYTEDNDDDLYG
Procedure: Assay Buffer (20 μL of 2.5× concentration, where 1×=50 mM Tris pH 7.4, 20 mM MgCl2, 1 mM EDTA, 0.5 mM TCEP) was dispensed into each well of a 96 well plate. Purified p97 (25 μL of 50 μM) was diluted in 975 μL, of 1× Assay Buffer and 10 μL was dispensed in each well. Test compound (10 μL) or 5% DMSO (10 μL) was then added to each well and the plate was incubated at room temperature for 10 min. The ATPase assay was carried out by adding to each well 10 μL of 500 μM ATP (pH 7.5), incubating at room temperature for 60 min, and then adding 50 μL Kinase Glo Plus reagent (Promega) followed by a final 10 min incubation at room temperature in the dark. Luminescence was read on an Analyst AD (Molecular Devices). Compounds were assayed at a range of concentrations (0, 0.048, 0.24, 1.2, 6, 30 μM) in triplicate. The percent of remaining activity for each reaction was calculated using the following mathematical expression: ((Test Compound-High Control)/(Low Control-High Control))*100. Test_Compound is defined as wells containing test compound, Low_Control is defined as wells containing DMSO, High_Control is defined as wells containing no p97 protein. […] The result was expressed as mean +/− standard error. For assays with Myriad 12 and 19, 100 μL of biomol green reagent (Enzo Life Sciences) was added to each well instead of kinase Glo Plus (Promega) and absorbance at 630 nm was measured. This was done because these compounds interfered with luciferase activity. […]

[3] = read-out: IC50 (μM) Ub^G76V-GFP turn over, p97-dependent Ub^G76V-GFP degradation turn-over assay
[4] = read-out: IC50 (μM) Ub^G76V-GFP turn over, Ub^G76V-GFP-expressing HeLa cells, degradation rate constant k from 90 to 180 min, mean +/- standard error
[5] = purified p97, ATP, 60 min room temperature, mean +/- standard error

Structure (SMILES)	IC50 [1, 3]	IC50 ([2]; p97 ATPase assay)	IC50 [1, 4]	IC50 [2, 5]
Brc1ccc2c(NCc3ccccc3)nc(NCc3ccccc3)nc2c1 [VI-16]	10 ± 2 µM	22 ± 4 µM		
c1ccc(CNc2nc(N3CCCc4ccccc43)nc3ccccc23)cc1 [VII-1]			10 ± 2 µM	4.4 ± 1.8 µM
c1ccc(CNc2nc(N3CCc4ccccc43)nc3ccccc23)cc1 [VII-2]			11 ± 3 µM	2 ± 0.5 µM
c1ccc(CNc2nc(N3CCOc4ccccc43)nc3ccccc23)cc1 [VII-3]			7 ± 1.9 µM	0.6 ± 0.2 µM
c1ccc(CNc2nc(N3CCNc4ccccc43)nc3ccccc23)cc1 [VII-4]			6.3 ± 1 µM	0.4 ± 0.05 µM
COc1cccc2c(NCc3ccccc3)nc(N3CCNc4ccccc43)nc12 [VII-5]			3.7 ± 0.2 µM	0.9 ± 0.1 µM
COc1cccc2c(NCc3ccccc3)nc(N3CCOc4ccccc43)nc12 [VII-6]			3.3 ± 0.4 µM	0.2 ± 0.02 µM
Oc1cccc2c(NCc3ccccc3)nc(N3CCOc4ccccc43)nc12 [VII-7]			7.7 ± 1.7 µM	1.2 ± 0.3 µM
c1ccc(CNc2nc(N3CCOc4ccccc43)nc3c(-c4ccccc4)cccc23)cc1 [VII-8]			5 ± 0.9 µM	3.5 ± 0.6 µM
OCCOc1cccc2c(NCc3ccccc3)nc(N3CCOc4ccccc43)nc12 [VII-9]			3.8 ± 0.8 µM	0.17 ± 0.05 µM
CCN(CC)CCOc1cccc2c(NCc3ccccc3)nc(N3CCOc4ccccc43)nc12 [VII-10]			5.3 ± 0.6 µM	0.4 ± 0.08 µM
COc1ccc(-c2cccc3c(NCc4ccccc4)nc(N4CCOc5ccccc54)nc23)cc1 [VII-11]			9 ± 1 µM	1.1 ± 0.1 µM
COc1cccc2c(NCc3ccccc3)nc(N3CCN(C)c4ccccc43)nc12 [VII-12]			7.8 ± 0.7 µM	3.1 ± 0.5 µM
COc1cccc2c(NCc3ccccc3)nc(N3CCN(C(C)=O)c4ccccc43)nc12 [VII-13]			8 ± 1 µM	2.7 ± 0.6 µM
COCCOc1cccc2c(NCc3ccccc3)nc(N3CCOc4ccccc43)nc12 [VII-14]			6.5 ± 0.7 µM	0.6 ± 0.03 µM
CCCCc1cccc2c(NCc3ccccc3)nc(N3CCOc4ccccc43)nc12 [VII-15]	28 ± 3 µM	2.63 ± 0.7 µM		
COc1cccc2c(NCc3ccccc3)nc(-n3c(N)nc4ccccc43)nc12 [VII-16]			0.9 ± 0.1 µM	0.11 ± 0.03 µM
COc1cccc2c(NCc3ccccc3)nc(-n3c(=O)oc4ccccc43)nc12 [VII-17]			5 ± 1 µM	0.11 ± 0.03 µM
c1ccc(CNc2nc(N3CCOc4ccccc43)nc3c2CCCC3)cc1 [VIII]			3.5 ± 0.4 µM	0.11 ± 0.03 µM
COc1cccc2c(NCc3ccccc3)nc(-n3cnc4ccccc43)nc12 [XI-1]			78 ± 45 µM	3.3 ± 1.1 µM

Structure (SMILES)	IC50 [1, 3]	IC50 ([2]; p97 ATPase assay)	IC50 [1, 4]	IC50 [2, 5]
COc1cccc2c(NCc3ccccc3)nc(N3CCOCC3)nc12 [XI-2]	47 ± 9 µM	31 ± 7 µM		
COc1cccc2c(NCc3ccccc3)nc(NC(N)=O)nc12 [XI-3]	108 ± 31 µM	49 ± 10 µM		
COc1cccc2c(NCc3ccccc3)nc(N3CCN(C)CC3)nc12 [XI-4]	45 ± 18 µM	> 30 µM		
COc1cccc2c(NCc3ccccc3)nc(Nc3nc4ccccc4s3)nc12 [XI-5]			14 ± 2 µM	0.5 ± 0.2 µM
COc1cccc2c(NCc3ccccc3)nc(Nc3nc4ccccc4n3C)nc12 [XI-6]			7.8 ± 1.2 µM	0.3 ± 0.07 µM
COc1cccc2c(NCc3ccccc3)nc(NC(=O)N(C)C)nc12 [XI-7]	37 ± 7 µM	60 ± 23 µM		
COc1cccc2c(NCc3ccccc3)nc(N3CCc4ccccc4C3)nc12 [XI-8]			7 ± 1.3 µM	15 ± 3 µM
COc1cccc2c(NCc3ccccc3)nc(N(C)c3ccccc3)nc12 [XI-9]	9.2 ± 1.2 µM	> 30 µM		
COc1cccc2c(NCc3ccccc3)nc(Nc3ccccc3O)nc12 [XI-10]			2.8 ± 0.5 µM	2.6 ± 0.4 µM
COc1cccc2c(NCc3ccccc3)nc(NC(C)c3ccccc3)nc12 (centres unmarked) [XI-11]			2.1 ± 0.7 µM	12 ± 5 µM
COc1cccc2c(NCc3ccccc3)nc(N(C)Cc3ccccc3)nc12 [XI-12]			> 20 µM	7 ± 3 µM
COc1cccc2c(NCc3ccccc3)nc(NCC3CCCCC3)nc12 [XI-13]			4.2 ± 1 µM	5.4 ± 0.9 µM
COc1cccc2c(NCc3ccccc3)nc(NCc3cncs3)nc12 [XI-15]			10 ± 3 µM	11 ± 1 µM
COc1cccc2c(NCc3ccccc3)nc(Nc3cc(C)cc(F)c3)nc12 [XI-18]			7.1 ± 0.5 µM	1.5 ± 0.2 µM
COc1cccc2c(NCc3ccccc3)nc(N3CCN(C(C)=O)CC3)nc12 [XI-19]	> 20 µM	> 30 µM		
COc1cccc2c(NCc3cncs3)nc(N3CCOc4ccccc43)nc12 [XII-1]	20 ± 3 µM	38 ± 7 µM		
COc1cccc2c(NCc3cccc(N(C)C)c3)nc(N3CCOc4ccccc43)nc12 [XII-2]	19 ± 4 µM	52 ± 10 µM		
COc1cccc2c(NCc3ccc(F)cc3)nc(N3CCOc4ccccc43)nc12 [XII-4]			3.7 ± 0.6 µM	1.9 ± 0.4 µM
COc1cccc2c(NCc3cccs3)nc(N3CCOc4ccccc43)nc12 [XII-5]			3 ± 0.6 µM	1.2 ± 0.2 µM
COc1cccc2c(NCC3CCCCC3)nc(N3CCOc4ccccc43)nc12 [XII-6]			8.2 ± 1 µM	7.4 ± 0.9 µM

Structure (SMILES)	IC50 [1, 3]	IC50 ([2]; p97 ATPase assay)	IC50 [1, 4]	IC50 [2, 5]
COc1cccc2c(NCc3ccccn3)nc(N3CCOc4ccccc43)nc12 [XII-7]			15 ± 4 µM	19 ± 5 µM
COc1cccc2c(NCc3ccccc3O)nc(N3CCOc4ccccc43)nc12 [XII-8]			6 ± 0.6 µM	4.6 ± 1 µM
COc1cccc2c(NCc3ccccc3N(C)C)nc(N3CCOc4ccccc43)nc12 [XII-9]	4.5 ± 0.5 µM	47 ± 22 µM		
COc1cccc2c(NCc3ccc(O)cc3)nc(N3CCOc4ccccc43)nc12 [XII-10]			7.3 ± 1 µM	2.4 ± 0.5 µM
COc1cccc2c(N3CCOc4ccccc43)nc(N3CCOc4ccccc43)nc12 [XII-11]	8.1 ± 1.8 µM	> 30 µM		
Nc1nc(CCl)nc(N(c2ccccc2)c2ccccc2)n1 [XIII]			10 ± 2 µM	13 ± 5 µM
CC(C)c1ccc(Nc2nc(N)nc(CCl)n2)cc1 [XIV]			14 ± 2.4 µM	15 ± 5 µM
CCc1nc2ccccc2n1CC(=O)OCC(=O)C(C#N)=C1Nc2ccccc2N1 [XIX]			7.2 ± 1.1 µM	14 ± 6 µM
CC(C)Nc1nc(Nc2cccc(Cl)c2)nc2ccccc12 [XLII]	11 ± 2 µM	> 30 µM		
COc1ccc(Nc2nc(N3CCN(c4ccc([N+](=O)[O-])cc4)CC3)nc3ccccc23)c(OC)c1 [XLIX]	70 ± 16 µM	43 ± 13 µM		
COc1ccc(Nc2nc(N3CCN(S(=O)(=O)c4ccc(C)cc4)CC3)nc3ccccc23)cc1 [XLVIII]	39 ± 18 µM	22 ± 12 µM		
c1ccc(CNc2nc(N3CCN(c4ccccc4)CC3)nc3ccccc23)cc1 [XLVII]	35 ± 5 µM	34 ± 11 µM		
CC(Nc1nc(N2CCOCC2)nc2ccccc12)c1ccccc1 (centres unmarked) [XLVI]	36 ± 0.3 µM	34 ± 10 µM		
CN1CCN(c2nc(NCc3ccccc3)c3ccccc3n2)CC1 [XLV]	31 ± 6 µM	53 ± 18 µM		
N#CC(C(=O)COC(=O)CCC(=O)c1ccc2c(c1)OCCO2)=C1Nc2ccccc2N1 [XVIII]			6.3 ± 0.6 µM	10 ± 4 µM
Nc1nc(CCl)nc(Nc2ccc(Cl)c(Cl)c2)n1 [XVII]			5.7 ± 0.8 µM	15 ± 4 µM
Cc1c(Cl)cccc1Nc1nc(N)nc(CCl)n1 [XVI]			5.9 ± 1 µM	18 ± 8 µM
Nc1nc(CCl)nc(Nc2ccc(Oc3ccccc3)cc2)n1 [XV]			3.7 ± 0.6 µM	14 ± 5 µM
